Measurements as given in patent US20240201173A1, “Enamel Repair Visualization and Quantification” (Colgate-Palmolive Company, priority 2022, published 2024).

Assays:
[1] = Single-block enamel repair evaluation, solution samples (Keyence microscope step height, light microscopy, SEM); set-up: species or system bovine
Protocol: The left half of the block (“sound”) is covered using an acid-resistant nail polish, which is then allowed to air dry. The right half of the block (“damaged” and “repaired”) is then treated with 1% citric acid (pH 3.6) for ten minutes to etch the surface. After the treatment, the surface of the block is rinsed with deionized water. The top right corner of the block (“damaged”) is then covered with the same acid-resistant nail polish and air dried. The test formulation is then applied to the bottom right corner of the block (“repaired”), for example, for a ten-minute treatment, followed by rinsing with deionized water. Following the treatment, the enamel blocks are immersed in a Remineralization Solution (0.2205 g/L CaCl2·2H2O, 0.1225 g/L KH2PO4, 9.6915 g/L KCl and 4.766 g/L HEPEs buffer, pH adjusted to 7 with NaOH) overnight at 37° C., and the process repeated for 2-4 days (the blocks immersed daily in fresh remineralization solution). Following this, the blocks are removed, rinsed with deionized water and air dried. The nail polish covers are then removed using acetone solvent, and the surface of the enamel blocks is visualized, for example, by light microscopy, confocal laser scanning microscopy, scanning probe microscopy, or scanning electron microscopy.
A Keyence microscope is used to capture the surface morphology and to measure the step height of the treated samples. A Phenom ProX Desktop scanning electron microscope is used to observe the repaired enamel crystals. Bovine enable blocks are treated with either water, the sodium fluoride solution, or the 10 mg/mL ePL+0.06 mg/mL malic acid solution (Solution A above).

[2] = Knoop microhardness repair of acid-etched bovine enamel blocks after treatment and remineralization; details: 1% citric acid etch 10 min, 40 microliters for ten minutes at room temperature, Remineralization Solution overnight at 37° C.
Protocol: Bovine enamel blocks are obtained from sound bovine incisors without defects. The labial surface of the bovine teeth is cut to provide enamel specimens of about 3×3×2 mm in size. The enamel layer is about 1 mm thick and the dentin left in the specimen is about 1 mm thick.
Etched enamel samples are prepared by treatment with 1% aqueous citric acid (pH 3.6) for 10 minutes, followed by rinsing with deionized water. Three bovine enamel blocks are prepared, one for the test solution, one for a positive control solution, and one for a negative control solution.
Etched bovine enamel samples are treated with 40 microliters of the polyelectrolyte solution A, with sodium fluoride solution, or with water, for ten minutes at room temperature. […]
Knoop Hardness (KHN) is a measure of hardness of a material calculated by measuring the indentation produced by a diamond tip that is pressed onto the surface of a sample. Using a calibrated microscope, the area of the impression can be determined, and from the area of the indentation (D) in […], and the applied load (F) in kilograms force, the Knoop Hardness is calculated as: KHN=14.229(F/D^2). […]
KHN is determined using Knoop microhardness tester. […] A value for Percentage of Hardness Repair (% HR) is calculated according to the following formula: […]

SMILES: [F-].[Na+] [NaF Control, sodium fluoride]
- % Repair (Step height) ([1]; 1% citric acid etch 10 min, ten-minute treatment, remineralization repeated 2-4 days): 65.3%
- enamel surface gaps, scanning electron microscopy ([1]; gaps from acid etching): some healing
- surface elevation, 3-D Keyence photomicrographs (FIG. 3) ([1]; height vs sound enamel side): do not restore the enamel to the original height
- surface morphology of repaired side, light microscopy (FIG. 2) ([1]; repaired vs damaged side of same block): a clear interface between “damaged” and “repaired” sides is observed
- % HR (Percentage of Hardness Repair) [2]: 41.0%
- % HR (Percentage of Hardness Repair) ([2]; listed as sodium fluoride): did not reach half of original hardness levels
